This is an account of results in patent US20060040980A1, “Ionophores as cancer chemotherapeutic agents” (priority 2004, published 2006).

For series [1], the system named is tumor cells. Kind of series: Modulation of CQ-mediated cell killing by anti-oxidants and zinc chelators. To be noted: added to CQ-treated cells. Format: cell-based. From the text: Inventors then studied the effects of the addition of zinc chelators. Since Ca^++ has a lower affinity for EDTA than Zn^++, the addition of […] it.

Series [2] deals with Raji cells (a human B-cell Burkitt lymphoma line). Kind of series: MTS cell viability assay, Raji. Format: cell-based. The conditions noted are these: for IC50: Homo sapiens, Raji (B-cell), MTS assay, n = 3, read-out: IC50 (μM) towards human tumor cell lines; for Effect of added copper, zinc or iron on CQ's cytotoxic effects / Interaction of clioquinol and DHA in killing cells (isobologram analysis): Raji cells; for Effect of added copper, zinc or iron on CQ's cytotoxic effects: ZnCl2, CuCl2, FeCl2 premixed with 5 μM clioquinol, 72 h; for Interaction of clioquinol and DHA in killing cells (isobologram analysis): ratio of IC50s. How it is done:
(§1) Cell viability was determined with the MTS assay. IC50 was calculated using nonlinear regression analysis (Prism 3.0). […] Data (n=3) are presented as means±S.E.M.
(§2) The CellTiter 96® Aqueous ONE Solution (Promega) was used to assess cellular viability via reduction of (3-(4,5-dimethylthiazol-2-yl)-5-(3carboxymethoxyphenyl)-2-(4-sulfophenyl)-2H-tetrazolium (MTS). An ELISA-based apoptosis assay kit was from Roche, and an anti-poly (ADP-ribose) polymerase (PARP) monoclonal antibody was from BIOMOL Research Laboratories Inc. Nude mice were from Animal Technology Limited. All other reagents were analytic grade.
(§3) DHL-4 cells were provided by Dr. Linda Boxer (Stanford University), A2780 cells by Dr. Stephen Howell (University of California, San Diego), SiHa cells by Dr. Doris Benbrook (University of Oklahoma). All other cells were obtained from the ATCC. Cells were routinely grown in a […], in an environment containing 5% CO2, and passed every three days. Cell viability was analyzed using the MTS assay. […] The MTS assay was performed using the protocol provided by the manufacturer. In short, 20 μL of MTS solution was added to each well, and cells were incubated at 37° C. for 1-2 h. The optical density (490 nm) of each well was then determined.
(§4) IC50 values were calculated with nonlinear regression analysis using Graphpad Prism 3.0 (Graphpad Software, Inc.).
(§5) The cells studied included human B-cell lymphoma lines (DHL-4, Raji), breast (MCF-7, MDA-MB231), ovarian (A2780), cervical (SiHa), bladder (T24), and pancreatic (Mpanc-96) cancer cells.
as §1
Inventors reasoned that the cytotoxic effects of a chelator would be overcome by an excess of the chelated metal. Inventors added increasing concentrations of copper, zinc or iron to cells treated with CQ. […] Cell viability was expressed as a percentage of untreated cells.

The next series concerns Raji cells. Kind of series: Apoptosis ELISA (cytoplasmic histone-associated DNA fragments) and PARP/caspase-3 Western blot. Format: cell-based, human. To be noted: 24 h, PARP cleavage. As to the method: Western blot analysis was performed as previously described (57-59). Briefly, cells were lysed in a lysis buffer containing 50 MM Tris, pH 7.4, 50 mM NaCl, 0.5% NP-40, 50 mM NaF, 1 mM Na3VO4, 1 mM phenylmethylsulfonyl fluoride, 25 μg/ml leupeptin, and 25 μg/ml aprotinin. The lysates were centrifuged at 15,004×g for 15 min and the supernatants were collected for protein concentration determination, SDS-PAGE, and western blot analysis with specific antibodies, as described.
An ELISA-based kit (Roche Diagnostics Coup., Ind.) was used to quantitatively measure cytoplasmic histone-associated DNA fragments (mononucleosomes and oligonucleosomes), a measure of apoptosis, according to the manufacturer's instructions.
Cellular extracts were analyzed using an ELISA-based assay (Roche Diagnostics Corp., Indianapolis, Ind.) that quantifies release into the cytoplasm of histone-associated DNA fragments (mononucleosomes and oligonucleosomes), a measure of apoptosis. In addition, the lysates were subjected to SDS-PAGE followed by Western blotting using an anti-poly (ADP-ribose) polymerase (PARP) monoclonal antibody (clone C-2-10) to detect PARP cleavage, a sign of caspase-dependent apoptosis.
Cell lysates were prepared and apoptosis determined using an ELISA that quantified cytoplasmic DNA-histone complexes. […]

The next series relates to SiHa (cervical). Kind of series: MTS cell viability assay, SiHa. Format: cell-based. To be noted: Homo sapiens, read-out: IC50 (μM) of clioquinol towards human tumor cell lines, 72 h, n = 3.
From the text: as §2, §3, §4, §5

For the next series, the system named is mouse brains. To be noted: cited from earlier work.
Series [3] has as its system A2780 (a human ovarian cancer line) xenograft. Kind of series: A2780 xenograft in nude mice. Format: in vivo. To be noted: 28 mg/kg, 5 days a week. As to the method:
Control animals were given Intralipid, without Cloquinol. […] Animals' weights were also measured 3 times a week.
In a separate experiment, nude mice were injected with the ovarian cancer cell line, A2780 and treated similarly. Mice were killed when the tumor reached 10% of their body weight.
Tumor size was calculated and expressed as […] .

The test system of series [4] is immortalized endothelial cell line (EAhy.926). Kind of series: Endothelial cell tube formation assay on Matrigel. The conditions noted are these: EAhy.926 on Matrigel. Format: cell-based. How it is done:
An immortalized endothelial cell line (EAhy.926) was plated on Matrigel at a density of 15,000 per well in the absence or presence of the drugs indicated overnight at 37° C. Branch formation was used as a measure of tube formation. Each value was determined by averaging the number of branches per field (250×) in 3 representative fields. The final bFGF concentration was 5 ng/mL.

For series [5], the system named is patients with Alzheimer's disease. To be noted: cited from earlier work.
A further series concerns T24 (Bladder). Kind of series: MTS cell viability assay, T24. To be noted: Homo sapiens, read-out: IC50 (μM) of clioquinol towards human tumor cell lines, 72 h, n = 3. Format: cell-based.
From the text: as §2, §3, §4, §5
(Tetrazolium assays rely on reduction of a dye to a coloured formazan, in cell work by metabolically active cells.)

For series [6], the system named is mouse model of Alzheimer's disease. The conditions noted are these: cited from earlier work.
A further series relates to animals. To be noted: high doses; cited from earlier work.
The next series has as its system DHL-4 (B-cell). Kind of series: MTS cell viability assay, DHL-4. Format: cell-based. The conditions noted are these: Homo sapiens, read-out: IC50 (μM) of clioquinol towards human tumor cell lines, 72 h, n = 3.
From the text: as §2, §3, §4, §5

For another series, the system named is MDA-MB-231 (breast). Kind of series: MTS cell viability assay, MDA-MB-231. Format: cell-based. To be noted: Homo sapiens, read-out: IC50 (μM) of clioquinol towards human tumor cell lines, 72 h, n = 3.
From the text: as §2, §3, §4, §5

For series [7] the following is noted: cited from earlier work.
A further series deals with M-panc-96 (pancreas). Kind of series: MTS cell viability assay, M-panc-96. Format: cell-based. The conditions noted are these: Homo sapiens, MPANC96, read-out: IC50 (μM) of clioquinol towards human tumor cell lines, 72 h, n = 3.
From the text: as §2, §3, §4, §5

In the next series the test system is human cancer cell lines. Kind of series: Viability of eight human cancer cell lines (overall statement). Format: cell-based.
From the text: as §2, §3, §4, §5

For another series, the system named is MCF-7 (breast). Kind of series: MTS cell viability assay, MCF-7. To be noted: Homo sapiens, MCF7, read-out: IC50 (μM) of clioquinol towards human tumor cell lines, 72 h, n = 3. Format: cell-based.
From the text: as §2, §3, §4, §5

In series [8] the test system is Raji (a human B-cell lymphoma line) xenograft.
Method: Xenograft model Nude mice (Harlan Sprague-Dawley, Indianapolis, Ind.) were maintained in accordance with the Institutional Animal Care and Use Committee (IACUC) procedures and guidelines. 10×10^6 Raji (a human B-cell lymphoma line), or 5×10^6 A2780 (a human ovarian cancer line) cells were suspended in 100 μL of phosphate buffered saline, mixed with 50% Matrigel, and implanted subcutaneously into the flanks of 5-week-old female nude mice. […] The tumor volume was assessed three times a week using calipers to measure the perpendicular diameters of the tumor, and calculated with the formula; v=l×(w)^2 (0.5), where v=tumor volume, l=length of tumor and w=width of donor (60). Animals' weights were also measured 3 times a week.
Nude mice were injected subcutaneously with Raji cells.
For the next series, the target named is albumin (Homo sapiens, UniProt P02768). To be noted: read-out: Affinity of binding to albumin; cited from earlier work.
Chain of albumin (P02768 25-609): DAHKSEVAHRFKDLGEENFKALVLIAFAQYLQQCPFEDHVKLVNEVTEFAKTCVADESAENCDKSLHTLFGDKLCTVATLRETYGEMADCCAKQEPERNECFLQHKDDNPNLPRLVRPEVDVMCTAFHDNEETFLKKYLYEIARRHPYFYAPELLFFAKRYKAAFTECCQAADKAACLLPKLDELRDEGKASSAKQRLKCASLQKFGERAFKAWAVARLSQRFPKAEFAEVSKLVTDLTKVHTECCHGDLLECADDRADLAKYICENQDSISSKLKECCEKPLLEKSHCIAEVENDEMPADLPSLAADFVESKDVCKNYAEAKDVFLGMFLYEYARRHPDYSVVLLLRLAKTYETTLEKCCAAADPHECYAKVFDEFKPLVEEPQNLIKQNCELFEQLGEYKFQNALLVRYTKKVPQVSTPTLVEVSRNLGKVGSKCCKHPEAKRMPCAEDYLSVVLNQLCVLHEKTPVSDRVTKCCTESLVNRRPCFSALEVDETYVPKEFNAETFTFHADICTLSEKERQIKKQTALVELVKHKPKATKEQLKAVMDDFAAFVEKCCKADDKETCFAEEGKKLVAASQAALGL
For another series, the system named is A2780 cells. Kind of series: Cellular zinc level measurement with FluoZin-3. To be noted: A2780, 30 μM clioquinol, 1 h, increasing zinc. Format: cell-based, human.
For a further series, the system named is A2780 (ovarian). Kind of series: MTS cell viability assay, A2780. Format: cell-based, human.
From the text: as §2, §3, §4, §5

Series [9] has as its target purified bovine erythrocyte SOD 1 (Bos taurus, UniProt P00442). Kind of series: SOD1 activity, xanthine oxidase/cytochrome C method, purified enzyme. To be noted: purified bovine erythrocyte SOD 1, in vitro.
The test system of series [10] is tumor cells. Kind of series: Lipid peroxidation (thiobarbituric acid reactive substances) in CQ-treated tumor cells. Format: cell-based. To be noted: CQ treatment of tumor cells.
Where [11] appears, read: oral, 750 mg a day, Alzheimer's trial.

Entries after “also recorded” stand apart in the source; their conditions may differ. Like-named read-outs stand apart in the source and are kept apart here.

Chain of purified bovine erythrocyte SOD 1 (P00442 whole entry): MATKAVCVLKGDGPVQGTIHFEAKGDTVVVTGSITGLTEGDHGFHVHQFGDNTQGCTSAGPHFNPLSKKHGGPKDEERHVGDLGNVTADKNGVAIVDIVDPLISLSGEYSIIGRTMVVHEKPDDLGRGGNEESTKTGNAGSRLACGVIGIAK
Method for A2780 cells: A sensitive water-soluble salt form of a fluorescent zinc indicator was used for cellular zinc level measurement following the manufacture's protocol (FluoZin-3, Molecular Probes). A2780 (10,000/well) and Raji cells (30,000/well) were plated in a 96-well plate.
FluoZinc-3 (final concentration of 3 μM) was added and the cells were incubated for another 30 min at 37° C. After the incubation, cells were washed twice with fresh medium to remove any dye nonspecifically associated with the cell surface. Additional medium was added and the cells were incubated for a further 30 min before fluorescence measurements were commenced. The fluorescence was measured at 485nm/535nm (excitation/emission), using a Wallac 1420 Multilabel Counter (Perkin Elmer).
The zinc ionophore pyrithione was used as a positive control.

For the molecule `O=C([O-])CN(CCN(CC(=O)[O-])CC(=O)[O-])CC(=O)[O-].[Ca+2].[Na+].[Na+]` [CaEDTA], in the series on tumor cells [1], the “Effect of zinc chelators on CQ-mediated cell killing” value is recorded as “decrease in CQ-mediated cell killing”.

`CC/C=C\C/C=C\C/C=C\C/C=C\C/C=C\C/C=C\CCC(=O)O` [DHA, docosahexaenoic acid]: the IC50 in series [2] stood at 85 µM.

As to `Cc1c(C)c2c(c(C)c1O)CCC(C)(C(=O)O)O2` (stereo not drawn) [Trolox], in the series with tumor cells [1], the “Protection of cells against CQ by anti-oxidants” value is given as “do not protect”.

As for `O=C(O)CN(CCN(CC(=O)O)CC(=O)O)CC(=O)O.[Zn]` [ZnEDTA], the “Effect of zinc chelators on CQ-mediated cell killing” value in the series with tumor cells [1] was “not”.

Regarding `Oc1c(I)cc(Cl)c2cccnc12` [clioquinol, 5-chloro-7-iodo-8-hydroxyquinoline], the Induction of apoptosis entry in the series on Raji cells is given as “induces apoptosis”. The IC50 with SiHa (cervical) worked out at 38.8 µM; in series [2] it was 12.4 µM; in the series with T24 (Bladder) it was 20 µM; in the series with DHL-4 (B-cell), 6.7 µM; with MDA-MB-231 (breast), 19.9 µM; with M-panc-96 (pancreas) it was 23.6 µM. The IC50 is 10 to 40 µM in the series on human cancer cell lines (eight human cancer cell lines, 72 h, read-out: IC50s, range over all cell lines tested); 29.7 µM in the series on MCF-7 (breast); 14.2 µM in the series on A2780 (ovarian) (Homo sapiens, read-out: IC50 (μM) of clioquinol towards human tumor cell lines, A2780 (ovarian), 72 h, n = 3). Moreover, the “Accumulation of vitamin B12 in the brain” value in the series on mouse brains is given as “decreased”. Also, in [3], the “Survival of treated mice” value is reported as “prolonged survival”. Further, the Tumor growth entry was “inhibited tumor growth” in series [3] and “inhibition of tumor growth” in series [8] (Raji xenograft, 28 mg/kg ip, 5 days a week). In [4], the “Anti-angiogenic effect (cell survival and tube branches)” value is reported as “anti-angiogenic effect”. In [4] (bFGF 5 ng/mL, overnight), the “Endothelial cell tube formation” value is on record as “inhibited in a dose dependent manner”. Further, the “Effect of added copper, zinc or iron on CQ's cytotoxic effects” value was “potentiation” in series [2] and “potentiated” in series [2] (listed as CQ). Further, the “Interaction of clioquinol and DHA in killing cells (isobologram analysis)” value in series [2] is given as “potentiate DHA; also recorded: synergy”; in series [2] (listed as CQ) it was “synergism”. The Neurotoxicity in patients result in series [5] (Australia, 36 patients, 250, 500, 750 mg a day over nine months with vitamin B12) is listed as “No neurotoxicity”. The Toxicity in patients result in series [5] (Sweden, 10 or 80 mg a day for 21 days) was “without experiencing toxicity”. In series [6] (mice), the Dose administered safely is 30 mg/kg/day. The “Sedimentable amyloid in the brains” value in [6] (mouse model of Alzheimer's disease) was “decrease”. Besides, the “Neurotoxicity in animal studies” value in the series with animals is on record as “can induce neurotoxicity”. For the same molecule, in series [7] (man, in 12 hours), the “Absorbed from the skin” value was 40%. For the same molecule, in series [7] (man, in 72 hours), the “Excreted in the urine after absorption from the GI tract” value is 25%. Further, the Serum half-life result in series [7] (man) is recorded as “about 12 hours”. Moreover, the Trough blood levels result in series [7] (setting [11]) is “about 25 μM”; in series [7] (oral, 750 mg a day, Alzheimer's trial, listed as CQ) it was 25 µM. For the same molecule, the “Trough, steady-state blood levels” value in [7] (setting [11]) is 7.6 µg/mL. In addition, the “IC50s in killing human cancer cells (in words)” value with human cancer cell lines (human cancer cells) is reported as “low micromolar range”. Moreover, the Signs of toxicity entry in [8] (mouse, in vivo, ip, 28 mg/kg) is recorded as “No animals exhibited signs of toxicity”. In addition, the Kd on albumin was 0.01 µM. The “Zinc ionophore activity (fluorescent zinc indicator)” value is recorded as “is a zinc ionophore” in the series with A2780 cells and “is indeed an ionophore” with A2780 cells (listed as CQ). For the same molecule, the “Exposure time sufficient for full cytotoxicity” value in the series with A2780 (ovarian) (A2780 cells, time-course studies) is 8 h. Also, the “Effect on purified SOD 1” value in [9] is listed as “inhibition”. In addition, the “Lipid peroxidation (thiobarbituric acid reactive substances)” value in the series on tumor cells [10] was “does not lead to increased lipid peroxidation”.

For the molecule `[O-][n+]1ccccc1S` [pyrithione, 2-mercaptopyridine 1-oxide], the “Anti-angiogenic effect (cell survival and tube branches)” value in series [4] is on record as “anti-angiogenic effect”.

With vitamin E, in the series on tumor cells [1], the “Protection of cells against CQ by anti-oxidants” value is “do not protect”.
